Laboratory results as given in patent US8541400B2, “Compositions forming non-lamellar dispersions” (Camurus AB, priority 2004, dated 2013).

Columns and labels:
[1] = Active agent loading into non-lamellar particle dispersion; assay type: physicochemical; settings: active agent relative to mass of total amphiphile, DGMO/GDO/Pluronic F127 54/36/10 dispersion; for % loading by equilibration: 37° C., three days; for % loading by heat treatment: autoclavation 125° C., 20 minutes
Method: A composition comprising DGMO (54% by weight), GDO (36% by weight) and Pluronic® F127 (10% by weight) was dispersed in 99 times its weight in water by the method of Example 2.1.
The dispersion was divided into samples and loaded with each of the active agents shown below by each of two techniques: • i) A saturated solution of active was equilibrated with the particles in dispersion at 37° C. for three days by gentle stirring on a rotating table. • ii) The samples were dispersed in a solution of excess active agent and heat treated by autoclavation at 125° C. for 20 minutes and were allowed to temperature equilibrate at 37° C. for at least one hour.
The following loadings were achieved, expressed as percentage active agent incorporated relative to the mass of total amphiphile.

[2] = Oral bioavailability of octreotide in rats (plasma OCT, competitive immunoassay); assay type: in vivo; settings: rat, 0.2 mg/kg, read-out: Absolute bioavailability (F)
Method: On the first day of the experiment, the rats were prepared by inserting a silicon catheter (OD approx. 1 mm) in the jugular vein under isoflurane anaesthesia. The catheter was tunnelled under the skin and exteriorised between the scapulae. After surgery the rats were allowed 48 hours of recovery before dosing. The catheter was rinsed with 0.9% NaCl containing 1 mM EDTA, every morning during the recovery period.
In the morning, after approximately 16 hours of fasting (water was accessible), the animals were dosed and blood collected. The animals were allowed free access to water after dosing, but had no access to food. After the last sampling, all animals were sacrificed.
The rats were dosed intravenously through the venous catheter or by gavage by a plastic ball-tipped gavage tube. […]
The content of OCT in all plasma samples was measured by a competitive immunoassay. […] The fraction of antibody remaining in solution is removed, and the fraction bound to the immobilized peptide is quantified, the signal obtained being inversely proportional to the concentration of OCT in the sample. […]
Dose-corrected absolute bioavailability of OCT in the oral non-lamellar formulation was calculated as: Availability (F)=(AUCoral×DoseIV)/(AUCIV×Doseoral)×100 20.6—Results

Row | Compound | % loading by equilibration [1] | % loading by heat treatment [1] | bioavailability [2]
1 | C[C@]12CC[C@@H]3c4ccc(O)cc4C[C@@H](CCCCCCCCC[S+]([O-])CCCC(F)(F)C(F)(F)F)[C@H]3[C@@H]1CC[C@@H]2O (stereo partly shown) [Fulvestrant] | 0.6% | 3.76% | –
2 | CC(=O)N1CCN(c2ccc(OCC3COC(Cn4ccnc4)(c4ccc(Cl)cc4Cl)O3)cc2)CC1 (stereo not shown) [Ketoconazole] | 3.49% | 19.25% | –
3 | C[C@@H](O)[C@@H]1NC(=O)[C@H](CCCCN)NC(=O)[C@@H](Cc2c[nH]c3ccccc23)NC(=O)[C@H](Cc2ccccc2)NC(=O)[C@@H](NC(=O)[C@H](N)Cc2ccccc2)CSSC[C@@H](C(=O)N[C@H](CO)[C@@H](C)O)NC1=O [OCT in a saline solution, Octreotide] | – | – | ~0.04%
4 | CC(=O)[C@H]1CC[C@H]2[C@@H]3CCC4=CC(=O)CC[C@]4(C)[C@H]3CC[C@]12C [Progesterone] | 2.99% | 12.65% | –
